Values of other authors in US12000829B2, “Selection of patients for combination therapy” (SYNDAX PHARMACEUTICALS, INC., priority 2018, dated 2024).
Where two headings read alike, the source gives them in different places.

Experiments:
[1] = system: syngeneic mouse tumor models of lung and renal cell carcinoma; conditions: two syngeneic mouse tumor models; tumor growth and survival
[2] = system: modestly immunogenic mouse tumors; conditions: in combination with immune checkpoint blockade agents
[3] = system: MDSCs and CD14+HLA-DR^Hi monocytes; conditions: ER+ breast cancer patients, combined with exemestane
[4] = system: squamous or non-squamous NSCLC; conditions: NSCLC and metastatic melanoma cohorts
[5] = system: melanoma
[6] = system: human carcinoma cell lines

Nc1ccccc1NC(=O)c1ccc(CNC(=O)OCc2cccnc2)cc1 [Entinostat, N-(2-aminophenyl)-4-[N-(pyridine-3-yl)methoxycarbonylamino-methyl]-benzamide]
antitumor effect of PD-1 inhibition [1]: enhanced the antitumor effect of PD-1 inhibition
effect on tumors [2]: can eradicate modestly immunogenic mouse tumors
effect on CD14+HLA-DR^Hi monocytes in patients [3]: increased immunocompetent CD14+HLA-DR^Hi monocytes
effect on MDSCs in patients [3]: reduction of immunosuppressive MDSCs

MPDL3280A: human anti-PD-L1 mAb with engineered Fc domain minimizing ADCC
responses [4]: durable responses

Pembrolizumab: humanized monoclonal IgG4 anti-PD-1 antibody
additional patients with unconfirmed responses ([5]; human, in vivo): 8 patients
biopsies of responding tumors ([5]; human, in vivo): dense infiltration by CD8^+ T cells
rate of severe toxicities ([5]; less dose intense cohorts): < 10%

avelumab: fully human anti-PD-L1 IgG1 antibody
lysis ([6]; NK cells as effectors): Lysis was increased
lysis ([6]; NK cells preactivated with IL-12): increased lysis
lysis ([6]; NK-mediated ADCC vs whole PBMCs or dendritic cells isolated from PBMCs): Little or no lysis
human carcinoma cell lines in which ADCC was induced ([6]; PBMCs as effectors): 8 out of 18
cell lines with augmented lysis ([6]; tumor cell lines pretreated with IFN-γ): 4 out of 10
